Results taken from patent US9675591B2, “Methods for treating seizure disorders and pain” (THE REGENTS OF THE UNIVERSITY OF CALIFORNIA, priority 2013, dated 2017).
Several values for one entry are separate records, joined by “and”; a condition that tells them apart may be missing. Identical values can stand only once. Entries after “also recorded” stand apart in the source; their conditions may differ. Like-named read-outs stand apart in the source and are kept apart here.

How the values were obtained:
[1] = Acute toxicity, rotorod test in mice; assay type: in vivo; settings: mouse, in vivo, ip, mice, i.p., suspension, read-out: TD50, ability of mice to stay on the rotorod
Protocol: (§1) Abnormal neurological status in mice following SKA-19 administration was evaluated with the rotorod test. When a normal mouse is placed on a rod 1 inch in diameter that rotates at a speed of 6 rpm, the mouse can maintain equilibrium for a long time. Inability of the mouse to stay on the rotating rod in three trials for 1 min is taken as an indication of motor impairment. […] Mice were placed on a horizontally oriented grid (consisting of parallel 1.5-mm diameter rods situated 1 cm apart), and the grid was inverted. Animals that fell from the grid within 10 s were scored as impaired.

mice = experiment: Acute toxicity, rotorod test in mice; assay type: in vivo
Protocol: as §1

[2] = test system: 6-Hz psychomotor seizures; experiment: 6-Hz psychomotor seizure test (ASP); assay type: in vivo, mice; settings: for ED50: Mus musculus, ip, mice
Protocol: Seizures characterized by a minimal clonic phase followed by stereotyped automatistic behaviors (jaw chomping and whisker movement) were induced in mice by a low frequency (6 Hz), long-duration (3 s) stimulus. These seizures resemble automatistic behavior in patients with complex partial seizures. At varying times (0.25, 0.5, 1, 2, and 4 h) after drug treatment, individual mice (four at each time point) were challenged with sufficient current (32 or 44 mA at 6 Hz for 3 s) delivered through corneal electrodes to elicit a psychomotor seizure. Animals not displaying this behavior are considered protected.

[3] = test system: cultured hippocampal neurons; experiment: Synchronous intracellular Ca2+ oscillations (FLIPR); assay type: cell-based, mouse; settings: for effect on picrotoxin (PTX) induced Ca2+ oscillations: added 10 min before PTX
Protocol: Animals were treated humanely and with regard for alleviation of suffering according to protocols approved by the Institutional Animal Care and Use Committee of the University of California, Davis. Hippocampal neuron cultures were dissociated from hippocampi dissected from C57Bl/6J mouse pups at postnatal day 0-1 and maintained in Neurobasal complete medium (Neurobasal medium supplemented with NS21, 0.5 mM L-glutamine, HEPES) with 5% fetal bovine serum. For Ca^2+ imaging studies using FLIPR, dissociated hippocampal cells were plated onto poly-L-lysine coated clear-bottom, black wall, 96-well imaging plate (BD, Franklin Lakes, N.J., USA) at a density of 0.8×10^5/well. The medium was changed twice a week by replacing half the volume of culture medium in the well with serum-free Neurobasal complete medium. The neurons were maintained at 37° C. with 5% CO2 and 95% humidity.
Hippocampal neurons 14-17 DIV were used for simultaneous measurements of intracellular Ca^2+ transients in all wells of a 96-well plate as described previously (Cao et al., 2012). After aspiration, the cells were incubated with 4 μM Fluo-4 in Locke's buffer containing 0.5 mg/ml bovine serum albumin for 1 h at 37° C. The plates were then transferred to the FLIPR (Molecular Devices, Sunnyvale, Calif., USA) cell plate stage. After 4 min of baseline recordings, Ca^2+ signals were then recorded for 10 min in the presence or absence of SKA-19 followed by addition of the Ca^2+ enhancing agents 4-AP or PTX, and the intracellular Ca^2+ concentration ([Ca^2+]i) was monitored for an additional 30 min. Ca^2+-enhancing agents triggered an immediate rise in [Ca^2+]i that was quantified by determining the area under the curve of the Fluo-4 arbitraiy fluorescence units for a duration of 5 min following agent addition.
Hippocampal neurons between 13-17 days in vitro (DIV) were used to investigate how Ca^2+ enhancing agent alters synchronous Ca^2+ oscillations that normally occur in healthy neurons at this developmental stage. This method permits simultaneous measurements of intracellular Ca^2+ transients in all wells of a 96-well plate as described previously (Cao et al., 2012). Baseline recordings were acquired in Locke's buffer (8.6 mM HEPES, 5.6 mM KCl, 154 mM NaCl, 5.6 mM glucose, 1.0 mM MgCl2, 2.3 mM CaCl2, and 0.0001 mM glycine, pH 7.4) for 10 min in presence or absence of SKA-19 followed by addition of the Ca^2+ enhancing agents 4-aminopyridine (4-AP) or picrotoxin using a programmable 96-channel pipetting robotic system, and the intracellular Ca^2+ concentration ([Ca^2+]i) was monitored for an additional 30 min. Unless otherwise indicated, pharmacological interventions were introduced 10 min prior to Ca^2+ enhancing agent. Ca enhancing agent triggered an immediate rise in [Ca^2+]i that was quantified by determining the area under the curve (AUC) of the Fluo-4 arbitrary fluorescence units for a duration of 5 min following Ca^2+ enhancing agent addition. Ca^2+ enhancing agent also altered the frequency and amplitude of neuronal synchronous Ca^2+ oscillations, which were analyzed during the 10 min period after addition of Ca^2+ enhancing agent […].

Nav1.2 = Nav1.2 (Mus musculus (Mouse), UniProt B1AWN6); experiment: Voltage-clamp, Nav1.2 currents in N1E-115 neuroblastoma cells; assay type: cell-based
Protocol: All experiments were conducted at room temperature (22-24° C.) with an EPC-10 amplifier and Pulse software (HEKA, Lambrecht/Pfalz, Germany) in the whole-cell mode of the patch-clamp technique. Human embryonic kidney (HEK)-293 cell lines stably expressing hNav1.1, hNav1.5, hNav1.7 channels (generously provided by Dr. Christopher Lossin, University of California Davis), hNav1.4 (Frank Lehmann-Horn, University of Ulm), or hKv2.1 channels (James Trimmer, University of California Davis) were bathed in extracellular solution containing (in mM): 160 NaCl; 4.5 KCl; 1 MgCl2; 2 CaCl2; 10 HEPES [pH was adjusted to 7.4 using NaOH (310 mOsm)]. Pipettes were filled with intracellular solution containing (in mM): 145 KF; 2 MgCl2; 10 ethylene glycol tetraacetic acid; 10 HEPES (pH adjusted to 7.2 with KOH; 300 mOsm). Neuroblastoma N1E-115 cells (ATCC, Manassa, Va., USA) expressing Nav1.2 were patched with a CsF internal solution consisting of (in mM): 10 NaF; 110 CsF; 20 CsCl; 2 ethylene glycol tetraacetic acid; 10 HEPES (CsOH to pH 7.35; 300 mOsm). All pipette tip resistances were 2-4 MΩ. Series resistances of 3-10 MΩ were compensated 40-80%. All cells were voltage-clamped to a holding potential of −90 mV unless otherwise specified. The sampling frequency was 5 kHz. Na^+ currents were elicited by 30-ms pulse to 0 mV from −90 mV applied every 10 s. Kv2.1 currents were elicited by 200-ms voltage steps from −90 to 40 mV applied every 10 s.

Sequence of Nav1.2 (B1AWN6 whole entry): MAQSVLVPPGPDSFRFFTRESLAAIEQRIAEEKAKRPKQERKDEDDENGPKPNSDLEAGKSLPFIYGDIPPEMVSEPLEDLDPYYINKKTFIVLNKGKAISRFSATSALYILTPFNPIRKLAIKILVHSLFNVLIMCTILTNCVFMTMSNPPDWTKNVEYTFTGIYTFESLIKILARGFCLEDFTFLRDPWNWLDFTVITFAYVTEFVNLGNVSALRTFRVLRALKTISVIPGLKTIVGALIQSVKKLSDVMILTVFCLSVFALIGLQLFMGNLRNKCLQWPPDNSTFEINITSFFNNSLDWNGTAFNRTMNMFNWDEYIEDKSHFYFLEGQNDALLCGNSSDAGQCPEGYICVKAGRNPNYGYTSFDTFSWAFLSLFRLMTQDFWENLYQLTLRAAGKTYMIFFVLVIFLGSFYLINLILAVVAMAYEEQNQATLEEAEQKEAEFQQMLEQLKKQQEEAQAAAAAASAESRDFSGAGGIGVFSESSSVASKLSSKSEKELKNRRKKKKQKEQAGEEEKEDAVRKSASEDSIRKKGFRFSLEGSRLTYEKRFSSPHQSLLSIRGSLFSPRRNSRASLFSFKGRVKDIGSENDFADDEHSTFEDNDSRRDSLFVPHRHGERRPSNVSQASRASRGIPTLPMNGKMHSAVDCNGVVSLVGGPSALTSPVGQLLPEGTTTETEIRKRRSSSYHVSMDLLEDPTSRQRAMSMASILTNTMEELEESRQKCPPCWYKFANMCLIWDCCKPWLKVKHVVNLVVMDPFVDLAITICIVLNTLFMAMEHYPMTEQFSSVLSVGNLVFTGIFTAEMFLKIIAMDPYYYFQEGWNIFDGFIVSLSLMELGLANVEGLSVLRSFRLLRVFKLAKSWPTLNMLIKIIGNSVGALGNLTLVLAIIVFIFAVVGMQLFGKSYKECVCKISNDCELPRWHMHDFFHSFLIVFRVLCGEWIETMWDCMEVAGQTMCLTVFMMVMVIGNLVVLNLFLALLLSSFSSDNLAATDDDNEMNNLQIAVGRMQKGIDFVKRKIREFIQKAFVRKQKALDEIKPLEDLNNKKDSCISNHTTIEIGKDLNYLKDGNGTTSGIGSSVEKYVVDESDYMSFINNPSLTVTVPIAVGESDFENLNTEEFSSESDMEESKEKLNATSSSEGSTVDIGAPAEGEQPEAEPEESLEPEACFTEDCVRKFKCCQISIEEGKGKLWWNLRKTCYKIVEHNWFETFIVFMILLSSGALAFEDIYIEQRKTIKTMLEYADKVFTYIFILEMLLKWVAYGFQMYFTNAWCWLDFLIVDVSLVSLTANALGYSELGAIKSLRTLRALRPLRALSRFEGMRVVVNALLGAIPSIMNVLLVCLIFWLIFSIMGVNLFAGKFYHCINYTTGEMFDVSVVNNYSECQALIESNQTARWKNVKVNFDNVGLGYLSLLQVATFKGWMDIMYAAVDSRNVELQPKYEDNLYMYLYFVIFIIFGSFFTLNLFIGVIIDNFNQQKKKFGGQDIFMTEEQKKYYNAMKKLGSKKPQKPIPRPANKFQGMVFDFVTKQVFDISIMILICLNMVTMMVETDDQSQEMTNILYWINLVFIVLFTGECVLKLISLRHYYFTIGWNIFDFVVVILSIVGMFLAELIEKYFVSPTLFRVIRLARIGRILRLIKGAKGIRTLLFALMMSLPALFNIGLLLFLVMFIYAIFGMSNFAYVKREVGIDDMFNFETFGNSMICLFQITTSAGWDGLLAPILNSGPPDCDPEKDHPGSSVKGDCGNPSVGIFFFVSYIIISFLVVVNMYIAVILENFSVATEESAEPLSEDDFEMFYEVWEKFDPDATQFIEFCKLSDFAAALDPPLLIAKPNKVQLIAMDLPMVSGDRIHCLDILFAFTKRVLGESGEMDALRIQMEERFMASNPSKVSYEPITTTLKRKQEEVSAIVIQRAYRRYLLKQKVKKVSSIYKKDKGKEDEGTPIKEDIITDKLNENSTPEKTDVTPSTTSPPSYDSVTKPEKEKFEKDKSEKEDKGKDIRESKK

## Nc1nc2ccc(SC(F)(F)F)cc2s1 [SKA-19, 6-((trifluoromethyl)thio)benzo[d]thiazol-2-amine]
[1]; CF No. 1 (Carworth Farms)
  TD50: 29.8 mg/kg
[1]; albino CF No. 1 (Carworth Farms)
  TD50 at 2 h: 29.8 mg/kg
[1]
  TD50: 29.7 mg/kg
mice; 100 mg/kg
  neurological deficit, rotorod: inability to clasp the rotorod
mice; 100 mg/kg i.p.
  mice that died: two out of 8
mice; 300 mg/kg
  neurological deficit / lethality: sedation or death
mice; 0.5 and 4 hours after 3, 10 and 30 mg/kg
  ability of mice to stay on the rotorod: no impairment
[2]; 10 mg/kg i.p., all other tested time points
  protection in 6-Hz test, initial screen: partial protection
[2]; 2 hours after i.p. 10 mg/kg
  protection in 6-Hz test, initial screen: full protection (4 out of 4 animals)
[2]; 2 h, 32 mA
  ED50: 12.2 mg/kg
[2]; current intensity 44 mA
  ED50: 28.1 mg/kg
[3]; SKA-19 1 μM or less
  effect on spontaneous Ca2+ oscillations: did not significantly inhibit; also recorded: no effect
[3]; SKA-19 3 μM or more
  effect on spontaneous Ca2+ oscillations: completely eliminated
[3]; added 10 min before 4-AP
  effect on 4-AP induced initial Ca2+ rise and oscillations: potently suppressed; also recorded: inhibited
[3]
  effect on picrotoxin (PTX) induced Ca2+ oscillations: potently suppressed
[3]; listed as SKA-10
  effect on picrotoxin (PTX) induced Ca2+ oscillations: inhibited
Nav1.2; 20 Hz, read-out: IC50, Nav1.2
  IC50: 520 ± 230 nM
Nav1.2; -70 mV holding potential, read-out: IC50, Nav1.2
  IC50: 860 ± 700 nM
Nav1.2; -120 mV holding potential, read-out: IC50, Nav1.2
  IC50: 9500 ± 1720 nM
Nav1.2; changed holding potential, read-out: IC50, Nav1.2
  IC50: 860 nM
Nav1.2; holding potential -90 mV, 0.1 Hz, read-out: EC50 or IC50, Nav1.2
  IC50: ~7900 nM and 7900 nM
Nav1.2; pulse frequency 20 Hz, read-out: IC50, Nav1.2
  IC50: 520 nM
